Measurements reported in ChEMBL document CHEMBL4477225, “Development of a cell viability assay to assess drug metabolite structure-toxicity relationships” (Bioorg Med Chem Lett, 2016).

What was measured:
Conditions in all cases: recombinant enzyme
Cytochrome P450 2C9 = Cytochrome P450 2C9 (Homo sapiens, UniProt P11712); assay: (§1) Drug activation in human Hep3B cells assessed as human CYP2C9-mediated drug metabolism-induced cytotoxicity measured as decrease in cell viability at 300 uM pre-incubated with BSO for 18 hrs followed by incubation with compound for 3 hrs in presence of NADPH measured after 24 hrs in absence of compound, CYP3A4 and NADPH by cell titer-glo luminescence assay relative to BSO alone
Cytochrome P450 3A4 [1] = molecular target: T1, Cytochrome P450 3A4 (Homo sapiens, UniProt P08684); assay: as §1, with “CYP3A4-mediated” for “CYP2C9-mediated”, “6.5” for “300”; assay type: ADME, cell-based
Cytochrome P450 2D6 [2] = molecular target: T2, Cytochrome P450 2D6 (Homo sapiens, UniProt P10635); assay: as §1, with “CYP2D6-mediated” for “CYP2C9-mediated”
Cytochrome P450 3A4 [3] = molecular target: T1, Cytochrome P450 3A4; assay: as §1, with “CYP3A4-mediated” for “CYP2C9-mediated”
Cytochrome P450 3A4 [4] = molecular target: T1, Cytochrome P450 3A4; assay: as §1, with “CYP3A4-mediated” for “CYP2C9-mediated”, “22.2” for “300”; assay type: ADME, cell-based
Cytochrome P450 2D6 [5] = molecular target: T2, Cytochrome P450 2D6; assay: as §1, with “CYP2D6-mediated” for “CYP2C9-mediated”, “5.8” for “300”; assay type: ADME, cell-based
Cytochrome P450 3A4 [6] = molecular target: T1, Cytochrome P450 3A4; assay: as §1, with “CYP3A4-mediated” for “CYP2C9-mediated”, “25.3” for “300”; assay type: ADME, cell-based

Cytochrome P450 2C9, sequence (P11712 whole entry): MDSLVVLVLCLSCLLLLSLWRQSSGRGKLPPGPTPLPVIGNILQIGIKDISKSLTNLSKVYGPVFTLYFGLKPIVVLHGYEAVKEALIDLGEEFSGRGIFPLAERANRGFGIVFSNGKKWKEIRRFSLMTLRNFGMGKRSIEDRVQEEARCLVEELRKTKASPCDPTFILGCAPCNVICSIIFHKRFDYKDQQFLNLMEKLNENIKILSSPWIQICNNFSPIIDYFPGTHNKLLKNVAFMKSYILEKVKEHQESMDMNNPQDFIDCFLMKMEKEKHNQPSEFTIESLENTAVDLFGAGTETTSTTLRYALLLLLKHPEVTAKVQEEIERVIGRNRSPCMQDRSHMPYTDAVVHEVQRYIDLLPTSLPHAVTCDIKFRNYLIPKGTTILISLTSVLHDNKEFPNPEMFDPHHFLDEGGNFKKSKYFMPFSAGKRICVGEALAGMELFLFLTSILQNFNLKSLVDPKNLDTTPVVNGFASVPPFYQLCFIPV
T2 sequence (P10635 whole entry): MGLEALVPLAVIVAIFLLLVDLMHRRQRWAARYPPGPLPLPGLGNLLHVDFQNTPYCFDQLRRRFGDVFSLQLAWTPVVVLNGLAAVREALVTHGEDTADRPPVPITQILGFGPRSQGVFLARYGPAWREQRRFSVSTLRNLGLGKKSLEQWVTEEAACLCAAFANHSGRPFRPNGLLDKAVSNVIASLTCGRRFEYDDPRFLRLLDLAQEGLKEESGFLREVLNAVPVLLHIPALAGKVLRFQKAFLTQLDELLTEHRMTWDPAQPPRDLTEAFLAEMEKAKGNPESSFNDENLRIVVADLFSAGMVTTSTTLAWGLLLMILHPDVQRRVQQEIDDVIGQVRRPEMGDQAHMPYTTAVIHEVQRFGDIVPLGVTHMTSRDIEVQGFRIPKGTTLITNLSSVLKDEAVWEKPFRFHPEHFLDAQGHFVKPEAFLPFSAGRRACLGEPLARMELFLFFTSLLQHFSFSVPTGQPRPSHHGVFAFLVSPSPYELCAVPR
T1 sequence (P08684 whole entry): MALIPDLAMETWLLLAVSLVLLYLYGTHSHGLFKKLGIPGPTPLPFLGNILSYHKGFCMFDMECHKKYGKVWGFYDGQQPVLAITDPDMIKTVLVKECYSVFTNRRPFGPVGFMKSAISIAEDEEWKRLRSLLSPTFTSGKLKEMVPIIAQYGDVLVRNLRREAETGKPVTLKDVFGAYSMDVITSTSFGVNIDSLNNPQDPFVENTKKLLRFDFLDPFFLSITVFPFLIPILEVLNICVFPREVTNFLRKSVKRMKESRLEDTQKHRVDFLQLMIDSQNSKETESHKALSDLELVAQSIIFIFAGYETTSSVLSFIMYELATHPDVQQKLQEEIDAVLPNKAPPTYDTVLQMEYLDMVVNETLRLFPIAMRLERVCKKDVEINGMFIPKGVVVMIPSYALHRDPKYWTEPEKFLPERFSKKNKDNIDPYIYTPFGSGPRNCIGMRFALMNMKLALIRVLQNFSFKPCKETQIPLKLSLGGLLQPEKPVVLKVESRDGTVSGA

Row | Structure (SMILES) | FC (Cytochrome P450 2C9) | fold change (FC) (Cytochrome P450 3A4 [1]) | FC (Cytochrome P450 2D6 [2]) | FC (Cytochrome P450 3A4 [3]) | fold change (FC) (Cytochrome P450 3A4 [4]) | fold change (FC) (Cytochrome P450 2D6 [5]) | fold change (FC) (Cytochrome P450 3A4 [6])
1 | CC(CCc1ccccc1)NCC(O)c1ccc(O)c(C(N)=O)c1 (stereo not given) [LABETALOL] | 1 | 46 | 1 | – | – | – | –
2 | CC[C@@H](CO)NCCN[C@@H](CC)CO [ETHAMBUTOL] | 1 | – | 1 | 1 | – | – | –
3 | Nc1c(CC(=O)O)cccc1C(=O)c1ccc(Br)cc1 [BROMFENAC] | 1 | – | 1 | 1 | – | – | –
4 | CCCNC(=O)NS(=O)(=O)c1ccc(Cl)cc1 [CHLORPROPAMIDE] | 1 | – | 1 | 1 | – | – | –
5 | CC[C@H](C)C(=O)O[C@H]1C[C@H](O)C=C2C=C[C@H](C)[C@H](CC[C@@H](O)C[C@@H](O)CC(=O)O)[C@H]21 [PRAVASTATIN] | 1 | – | 1 | 1 | – | – | –
6 | Nc1nc(O)c2ncn(COC(CO)CO)c2n1 [GANCICLOVIR] | 1 | – | 1 | 1 | – | – | –
7 | CNC(=C[N+](=O)[O-])NCCSCc1csc(CN(C)C)n1 [NIZATIDINE] | 1 | – | 1 | 1 | – | – | –
8 | CC1(C)S[C@@H]2[C@H](NC(=O)[C@H](N)c3ccc(O)cc3)C(=O)N2[C@H]1C(=O)O [AMOXICILLIN] | 1 | – | 1 | 1 | – | – | –
9 | COc1ccccc1Oc1c(NS(=O)(=O)c2ccc(C(C)(C)C)cc2)nc(-c2ncccn2)nc1OCCO [BOSENTAN] | 1 | – | 1 | 1 | – | – | –
10 | Cc1nc(C)c2c(n1)N(Cc1ccc(-c3ccccc3-c3nnn[nH]3)cc1)C(=O)CC2 [TASOSARTAN] | 1 | – | – | – | 13.5 | 52 | –
11 | CC(=O)Oc1ccccc1C(=O)O [ASPIRIN] | 1 | – | 1 | 1 | – | – | –
12 | CCOC(=O)C1=C[C@@H](OC(CC)CC)[C@H](NC(C)=O)[C@@H](N)C1 [OSELTAMIVIR] | 1 | – | 1 | 1 | – | – | –
13 | Cc1cn([C@H]2C[C@H](N=[N+]=[N-])[C@@H](CO)O2)c(=O)[nH]c1=O [ZIDOVUDINE] | 1 | – | 1 | 1 | – | – | –
14 | O=C(CCCN1CCC(O)(c2ccc(Cl)cc2)CC1)c1ccc(F)cc1 [HALOPERIDOL] | 1 | – | 1 | 1 | – | – | –
15 | COC(c1ccccc1)(c1ccccc1)[C@H](Oc1nc(C)cc(C)n1)C(=O)O [AMBRISENTAN] | 1 | – | 1 | 1 | – | – | –
16 | O=P1(N(CCCl)CCCl)NCCCO1 (stereo not given) [CYCLOPHOSPHAMIDE ANHYDROUS] | 1 | – | 1 | 1 | – | – | –
17 | O=c1[nH]cnc2c1ncn2[C@H]1CC[C@@H](CO)O1 [DIDANOSINE] | 1 | – | 1 | 1 | – | – | –
18 | CCCCCCCCCCC[C@@H](C[C@@H]1OC(=O)[C@H]1CCCCCC)OC(=O)[C@H](CC(C)C)NC=O [ORLISTAT] | 1 | – | 1 | 1 | – | – | –
19 | Nc1nc2c(ncn2COCCO)c(=O)[nH]1 [ACYCLOVIR] | 1 | – | 1 | 1 | – | – | –
20 | O=C(O)CCCCCCNC1c2ccccc2CCc2ccccc21 [AMINEPTINE] | 1 | – | 1 | 1 | – | – | –
21 | C[N+](C)(C)CC(=O)O [BETAINE] | 1 | – | 1 | 1 | – | – | –
22 | CCc1ccc(CCOc2ccc(CC3SC(=O)NC3=O)cc2)nc1 (stereo not given) [PIOGLITAZONE] | 1 | – | 1 | 1 | – | – | –
23 | CC/C(=C(\c1ccccc1)c1ccc(OCCN(C)C)cc1)c1ccccc1 [TAMOXIFEN] | – | – | – | – | – | – | 0.8
24 | Clc1cccc(Cl)c1N=C1NCCN1 [CLONIDINE] | 1 | – | 1 | 1 | – | – | –
